Test results from patent publication US20260355129A1, “5-HT2C AGONISTS FOR TREATING PRADER-WILLI SYNDROME (PWS), METABOLIC SYNDROMES, AND OTHER DISEASES AND DISORDERS” (Park City Bio, LLC, priority 2025, published 2026).

Tests used:
Type in all cases: cell-based
Conditions in all cases: HEK-293T, HEK293T, normalized to % 5-HT stimulation, class symbols (Table 5)
[1] = biological target: T1, 5-HT2C receptor (Homo sapiens, UniProt P28335); test: 5-HT2 receptor-mediated Gq activation, Gq/y1 dissociation by BRET, 5-HT2C
T1 construct: expressed in transfected cells; host or cells: HEK293T
T1 sequence (P28335 33-458): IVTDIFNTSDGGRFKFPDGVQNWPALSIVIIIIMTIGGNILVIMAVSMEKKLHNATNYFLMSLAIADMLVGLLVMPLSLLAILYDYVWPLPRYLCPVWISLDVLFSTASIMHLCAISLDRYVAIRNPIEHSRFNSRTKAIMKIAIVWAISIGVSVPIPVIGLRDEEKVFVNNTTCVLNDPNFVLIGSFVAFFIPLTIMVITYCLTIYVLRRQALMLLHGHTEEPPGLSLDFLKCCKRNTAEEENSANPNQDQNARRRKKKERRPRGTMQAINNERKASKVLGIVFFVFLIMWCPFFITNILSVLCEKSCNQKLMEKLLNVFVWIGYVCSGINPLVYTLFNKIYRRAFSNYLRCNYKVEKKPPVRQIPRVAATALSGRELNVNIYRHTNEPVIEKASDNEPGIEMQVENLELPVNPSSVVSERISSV
Text: (§1) To measure 5-HT2 receptor-mediated Gq activation via Gq/y1 dissociation as measured by Bioluminescence Resonance Energy Transfer (BRET) (McCorvy J D, Wacker D, Wang S, Agegnehu B, Liu J, Lansu K, Tribo A R, Olsen R H J, Che T, Jin J, Roth B L. Structural determinants of 5-HT2B receptor activation and biased agonism. Nat Struct Mo/Biol. 2018; 25(9): 787-96), HEK293T cells were sub-cultured in Dulbecco's Modified Eagle Medium (DMEM) supplemented with 10% dialyzed fetal bovine serum (FBS) and were co-transfected in a 1:1:1:1 ratio with Rluc8-fused human Gaq (Gaq-Rluc8), a GFP2-fused to the C-terminus of human Gy1(Gy1-GFP2), human G131, and 5-HT2 receptor using TransiT-2020. […] Substrate addition occurred 15 minutes before reading and utilized 10 μL of the Rluc substrate coelenterazine 400a for Gq dissociation BRET^2 (Prolume/Nanolight, 5 μM final concentration). Plates were read for luminescence at 400 nm and fluorescent GFP2 emission at 510 nm at 1 second per well using a Mithras LB940 multimode microplate reader (e.g. one provided by Berthold). The BRET ratios of fluorescence/luminescence were calculated per well and were plotted as a function of drug concentration using Graphpad Prism 8 (Graphpad Software Inc., San Diego, CA).

[2] = biological target: T2, 5-HT2B receptor (Homo sapiens, UniProt P41595); test: 5-HT2 receptor-mediated Gq activation, Gq/y1 dissociation by BRET, 5-HT2B
T2 construct: expressed in transfected cells; host or cells: HEK293T
T2 sequence (P41595 whole entry): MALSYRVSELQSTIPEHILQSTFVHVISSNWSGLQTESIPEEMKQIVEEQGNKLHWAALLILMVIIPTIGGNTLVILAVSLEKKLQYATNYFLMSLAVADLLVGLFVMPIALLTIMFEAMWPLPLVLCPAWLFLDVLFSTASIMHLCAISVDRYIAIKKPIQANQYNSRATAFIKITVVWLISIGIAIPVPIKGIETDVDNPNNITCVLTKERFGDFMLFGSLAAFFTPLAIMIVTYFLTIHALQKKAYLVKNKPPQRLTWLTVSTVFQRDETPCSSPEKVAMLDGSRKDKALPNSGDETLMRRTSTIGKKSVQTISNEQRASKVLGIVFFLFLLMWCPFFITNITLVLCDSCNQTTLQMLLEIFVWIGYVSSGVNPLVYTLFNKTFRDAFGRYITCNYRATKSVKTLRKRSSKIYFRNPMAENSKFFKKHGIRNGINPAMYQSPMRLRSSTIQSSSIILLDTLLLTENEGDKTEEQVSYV
Text: as §1

[3] = biological target: T3, 5-HT2A receptor (Homo sapiens, UniProt P28223); test: 5-HT2 receptor-mediated Gq activation, Gq/y1 dissociation by BRET, 5-HT2A
T3 construct: expressed in transfected cells; host or cells: HEK293T
T3 sequence (P28223 whole entry): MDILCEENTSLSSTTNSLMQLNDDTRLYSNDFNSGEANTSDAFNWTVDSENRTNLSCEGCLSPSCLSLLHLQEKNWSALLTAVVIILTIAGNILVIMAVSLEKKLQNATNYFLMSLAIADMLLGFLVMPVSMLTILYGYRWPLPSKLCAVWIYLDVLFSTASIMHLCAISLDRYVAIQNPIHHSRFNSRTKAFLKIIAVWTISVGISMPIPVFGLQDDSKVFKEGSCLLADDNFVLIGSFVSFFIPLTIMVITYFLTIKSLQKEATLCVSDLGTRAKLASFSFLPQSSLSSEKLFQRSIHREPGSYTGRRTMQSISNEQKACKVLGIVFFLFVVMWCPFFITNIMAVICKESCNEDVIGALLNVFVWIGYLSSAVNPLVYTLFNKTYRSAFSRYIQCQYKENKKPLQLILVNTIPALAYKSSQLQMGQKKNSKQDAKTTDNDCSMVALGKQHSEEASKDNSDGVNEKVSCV
Text: as §1

| SMILES | Emax [1] [%] | Emax [2] [%] | Emax [3] [%] |
| --- | --- | --- | --- |
| CNC[C@H]1C[C@@H]1c1cc(F)ccc1OC | 50 to 80 | 50 to 80 | 50 to 80 |
| CNCC1CC1c1cc(F)ccc1SC (centres unmarked) | 50 to 80 |  | 50 to 80 |
